In patent US9393271B2, “GHRH agonists for islet cell transplantation and function and the treatment of diabetes” (UNIVERSITY OF MIAMI, priority 2012, dated 2016):
Non-standard residues stand in square brackets, D forms with d. Residues, ends and D or L forms follow the SMILES beside them. *: point of attachment. Phe(F5) = N[C@@H](Cc1c(F)c(F)c(F)c(F)c1F)C(=O)O; Desaminotyrosyl = O=C(CCc1ccc(O)cc1)*; NMeY = CN[C@@H](Cc1ccc(O)cc1)C(=O)O; hArg = N=C(N)NCCCC[C@H](N)C(=O)O; Agmatine = N=C(N)NCCCCN*; Nle = CCCC[C@H](N)C(=O)O; Orn = NCCC[C@H](N)C(=O)O; Abu = CC[C@H](N)C(=O)O; Ava = NCCCCC(=O)O; GABA = NCCCC(=O)O

What was measured:
[1] = molecular target: T1, GHRH receptor (human pituitary membrane homogenates) (Homo sapiens, UniProt Q02643); assay: GHRH receptor binding, ligand competition with 125I-labeled [His1,Nle27]hGHRH(1-32)NH2 (Table 6); settings: for Relative affinitiy (Binding potency) vs GHRH: GHRH(1-29) = 1
T1 sequence (Q02643 23-423): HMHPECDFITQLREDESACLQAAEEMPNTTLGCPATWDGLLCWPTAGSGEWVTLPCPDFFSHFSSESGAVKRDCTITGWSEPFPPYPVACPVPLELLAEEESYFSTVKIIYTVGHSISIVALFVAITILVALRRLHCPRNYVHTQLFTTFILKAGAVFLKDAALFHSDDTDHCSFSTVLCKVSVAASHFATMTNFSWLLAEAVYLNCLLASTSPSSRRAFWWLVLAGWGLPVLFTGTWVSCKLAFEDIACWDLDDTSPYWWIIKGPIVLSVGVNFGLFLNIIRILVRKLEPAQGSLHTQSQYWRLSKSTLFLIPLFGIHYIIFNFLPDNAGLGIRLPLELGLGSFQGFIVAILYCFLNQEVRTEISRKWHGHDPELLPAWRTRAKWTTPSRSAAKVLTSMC

[2] = tested on: GH level; assay: In vivo endocrine activity (GH release), subcutaneous administration; settings: rat; for GH releasing potency relative to JI-38 (=1): s.c. injection
Experimental: Subcutaneous Administration. Adult male rats were used and anesthetized with pentobarbital (6 mg/100 g, b.w.), by i.p. injection. […] Blood samples were taken from the jugular vein 5, 15 and/or 30 minutes after the injection. The blood samples were centrifuged, plasma was removed and the GH level was measured by ELISA. The results are summarized in terms of potency in Table 9.

[3] = molecular target: T1, GHRH receptor (human pituitary membrane homogenates); assay: GHRH receptor binding, ligand competition with 125I-labeled JV-1-42 (Table 7); design: Normal human pituitaries were purchased from the National Hormone and Peptide Program; tissue National Hormone and Peptide Program (A. F. Parlow, Harbor-UCLA Medical Center, Torrance, Calif.); host or cells: normal human pituitary, membrane fraction / homogenate; settings: JI-38 = 1

| SMILES | Relative affinitiy (Binding potency) vs JI-38 ([1]; JI-38 = 1) | Relative affinitiy (Binding potency) vs JI-38 [3] | Relative affinitiy (Binding potency) vs GHRH [1] | GH releasing potency relative to JI-38 (=1) ([2]; 5 min after) | GH releasing potency relative to JI-38 (=1) ([2]; 15 min after) | GH releasing potency relative to JI-38 (=1) ([2]; 30 min after) | Stimulation of growth hormone levels after s.c. administration (comparison in words) [2] |
| --- | --- | --- | --- | --- | --- | --- | --- |
| CCCC[C@H](NC(=O)[C@@H](NC(=O)[C@H](CC(=O)O)NC(=O)[C@H](CCC(N)=O)NC(=O)[C@H](CC(C)C)NC(=O)[C@H](CC(C)C)NC(=O)[C@H](CCCN)NC(=O)[C@H](CCCNC(=N)N)NC(=O)[C@H](C)NC(=O)[C@H](CO)NC(=O)[C@H](CC(C)C)NC(=O)[C@H](CCC(N)=O)NC(=O)[C@H](CC)NC(=O)[C@H](CC(C)C)NC(=O)[C@@H](NC(=O)[C@H](CCCN)NC(=O)[C@H](CCCNC(=N)N)NC(=O)[C@H](Cc1ccc(O)cc1)NC(=O)[C@H](CO)NC(=O)[C@@H](NC(=O)[C@@H](NC(=O)[C@H](Cc1ccccc1)NC(=O)[C@@H](NC(=O)[C@H](C)NC(=O)[C@H](CC(=O)O)NC(=O)[C@H](C)NC(=O)CCc1ccc(O)cc1)[C@@H](C)CC)[C@@H](C)O)[C@@H](C)O)C(C)C)[C@@H](C)CC)C(=O)N[C@@H](CC(=O)O)C(=O)NCCCCNC(=N)N [JI-36, reference compound] (Desaminotyrosyl-ADAIFTTSYR[Orn]VL[Abu]QLSAR[Orn]LLQDI[Nle]D-Agmatine; N-terminus and C-terminus assumed) |  |  | 3.25 |  |  |  |  |
| CCCC[C@H](NC(=O)[C@@H](NC(=O)[C@H](CC(=O)O)NC(=O)[C@H](CCC(N)=O)NC(=O)[C@H](CC(C)C)NC(=O)[C@H](CC(C)C)NC(=O)[C@H](CCCN)NC(=O)[C@H](CCCNC(=N)N)NC(=O)[C@H](C)NC(=O)[C@H](CO)NC(=O)[C@H](CC(C)C)NC(=O)[C@H](CCC(N)=O)NC(=O)[C@H](CC)NC(=O)[C@H](CC(C)C)NC(=O)[C@@H](NC(=O)[C@H](CCCN)NC(=O)[C@H](CCCNC(=N)N)NC(=O)[C@H](Cc1ccc(O)cc1)NC(=O)[C@H](CO)NC(=O)[C@H](CC(N)=O)NC(=O)[C@@H](NC(=O)[C@H](Cc1ccccc1)NC(=O)[C@@H](NC(=O)[C@H](C)NC(=O)[C@H](CC(=O)O)NC(=O)[C@@H](C)NC(=O)CCc1ccc(O)cc1)[C@@H](C)CC)[C@@H](C)O)C(C)C)[C@@H](C)CC)C(=O)N[C@@H](CC(=O)O)C(=O)N[C@@H](CCCNC(=N)N)C(=O)N[C@@H](CCCCNC(=N)N)C(N)=O [Peptide P-23252, [Dat^1-D-Ala^2, Orn^12, Abu^15, Orn^21, Nle^27, Asp^28, Har^30]hGHRH(1-30)NH2] (Desaminotyrosyl-[dA]DAIFTNSYR[Orn]VL[Abu]QLSAR[Orn]LLQDI[Nle]DR[hArg]-NH2) | 13.9 |  | 42.3 |  |  |  |  |
| CCCC[C@H](NC(=O)[C@@H](NC(=O)[C@H](CC(=O)O)NC(=O)[C@H](CCC(N)=O)NC(=O)[C@H](CC(C)C)NC(=O)[C@H](CC(C)C)NC(=O)[C@H](CCCN)NC(=O)[C@H](CCCNC(=N)N)NC(=O)[C@H](C)NC(=O)[C@H](CO)NC(=O)[C@H](CC(C)C)NC(=O)[C@H](CCC(N)=O)NC(=O)[C@H](CC)NC(=O)[C@H](CC(C)C)NC(=O)[C@@H](NC(=O)[C@H](CCCN)NC(=O)[C@H](CCCNC(=N)N)NC(=O)[C@H](Cc1ccc(O)cc1)NC(=O)[C@H](CO)NC(=O)[C@H](CCC(N)=O)NC(=O)[C@@H](NC(=O)[C@H](Cc1ccccc1)NC(=O)[C@@H](NC(=O)[C@H](C)NC(=O)[C@H](CC(=O)O)NC(=O)[C@@H](C)NC(=O)[C@H](Cc1ccc(O)cc1)NC)[C@@H](C)CC)[C@@H](C)O)C(C)C)[C@@H](C)CC)C(=O)N[C@@H](CC(=O)O)C(=O)N[C@@H](CCCNC(=N)N)C(=O)NCCCCC(N)=O [Peptide P-22325, [N—Me-Tyr^1, Gln^8, Orn^12, Abu^15, Orn^21, Nle^27, Asp^28, Apa^30]hGHRH (1-30)NH2] (H-[NMeY][dA]DAIFTQSYR[Orn]VL[Abu]QLSAR[Orn]LLQDI[Nle]DR[Ava]-NH2) |  | 1.14 |  | 0.33 | 0.68 | 1.03 |  |
| CCCC[C@H](NC(=O)[C@@H](NC(=O)[C@H](CC(=O)O)NC(=O)[C@H](CCC(N)=O)NC(=O)[C@H](CC(C)C)NC(=O)[C@H](CC(C)C)NC(=O)[C@H](CCCN)NC(=O)[C@H](CCCNC(=N)N)NC(=O)[C@H](C)NC(=O)[C@H](CO)NC(=O)[C@H](CC(C)C)NC(=O)[C@H](CCC(N)=O)NC(=O)[C@H](CC)NC(=O)[C@H](CC(C)C)NC(=O)[C@@H](NC(=O)[C@H](CCCN)NC(=O)[C@H](CCCNC(=N)N)NC(=O)[C@H](Cc1ccc(O)cc1)NC(=O)[C@H](CO)NC(=O)[C@H](CCC(N)=O)NC(=O)[C@@H](NC(=O)[C@H](Cc1ccccc1)NC(=O)[C@@H](NC(=O)[C@H](C)NC(=O)[C@H](CC(=O)O)NC(=O)[C@@H](C)NC(=O)[C@H](Cc1ccc(O)cc1)NC)[C@@H](C)CC)[C@@H](C)O)C(C)C)[C@@H](C)CC)C(=O)N[C@@H](CC(=O)O)C(=O)N[C@@H](CCCNC(=N)N)C(=O)NCCCCC(N)=O [Peptide P-22326, [N—Me-Tyr^1, D-Ala^2, Gln^8, Orn^12, Abu^15, Orn^21, Nle^27, Asp^28, Apa^30]hGHRH(1-30)NH2] (H-[NMeY][dA]DAIFTQSYR[Orn]VL[Abu]QLSAR[Orn]LLQDI[Nle]DR[Ava]-NH2) |  | 6.12 |  |  |  |  | stimulated greater growth hormone levels than hGHRH or JI-38 |

Further lines, with some results ahead:

| Relative affinitiy (Binding potency) vs JI-38 ([1]; JI-38 = 1) | Relative affinitiy (Binding potency) vs JI-38 [3] | SMILES | Relative affinitiy (Binding potency) vs GHRH [1] | GH releasing potency relative to JI-38 (=1) ([2]; 5 min after) | GH releasing potency relative to JI-38 (=1) ([2]; 15 min after) | GH releasing potency relative to JI-38 (=1) ([2]; 30 min after) | Stimulation of growth hormone levels after s.c. administration (comparison in words) [2] |
| --- | --- | --- | --- | --- | --- | --- | --- |
|  | 4.07 | CCCC[C@H](NC(=O)[C@@H](NC(=O)[C@H](CC(=O)O)NC(=O)[C@H](CCC(N)=O)NC(=O)[C@H](CC(C)C)NC(=O)[C@H](CC(C)C)NC(=O)[C@H](CCCN)NC(=O)[C@H](CCCNC(=N)N)NC(=O)[C@H](C)NC(=O)[C@H](CO)NC(=O)[C@H](CC(C)C)NC(=O)[C@H](CCC(N)=O)NC(=O)[C@H](CC)NC(=O)[C@H](CC(C)C)NC(=O)[C@@H](NC(=O)[C@H](CCCN)NC(=O)[C@H](CCCNC(=N)N)NC(=O)[C@H](Cc1ccc(O)cc1)NC(=O)[C@H](CO)NC(=O)[C@H](CC(N)=O)NC(=O)[C@@H](NC(=O)[C@H](Cc1ccccc1)NC(=O)[C@@H](NC(=O)[C@H](C)NC(=O)[C@H](CC(=O)O)NC(=O)[C@@H](C)NC(=O)[C@H](Cc1ccc(O)cc1)NC)[C@@H](C)CC)[C@@H](C)O)C(C)C)[C@@H](C)CC)C(=O)N[C@@H](CO)C(=O)N[C@@H](CCCNC(=N)N)C(=O)NCCCC(N)=O [Peptide P-25501, [N—Me-Tyr^1, D-Ala^2, Orn^12, Abu^15, Orn^21, Nle^27, Gab^30]hGHRH(1-30)NH2] (H-[NMeY][dA]DAIFTNSYR[Orn]VL[Abu]QLSAR[Orn]LLQDI[Nle]SR[GABA]-NH2) |  |  |  |  | stimulated greater growth hormone levels than hGHRH or JI-38 |
|  | 5.00 | CCCC[C@H](NC(=O)[C@@H](NC(=O)[C@H](CC(=O)O)NC(=O)[C@H](CCC(N)=O)NC(=O)[C@H](CC(C)C)NC(=O)[C@H](CC(C)C)NC(=O)[C@H](CCCN)NC(=O)[C@H](CCCNC(=N)N)NC(=O)[C@H](C)NC(=O)[C@H](CO)NC(=O)[C@H](CC(C)C)NC(=O)[C@H](CCC(N)=O)NC(=O)[C@H](CC)NC(=O)[C@H](CC(C)C)NC(=O)[C@@H](NC(=O)[C@H](CCCN)NC(=O)[C@H](CCCNC(=N)N)NC(=O)[C@H](Cc1ccc(O)cc1)NC(=O)[C@H](CO)NC(=O)[C@H](CC(N)=O)NC(=O)[C@@H](NC(=O)[C@H](Cc1c(F)c(F)c(F)c(F)c1F)NC(=O)[C@@H](NC(=O)[C@H](C)NC(=O)[C@H](CC(=O)O)NC(=O)[C@@H](C)NC(=O)[C@H](Cc1ccc(O)cc1)NC)[C@@H](C)CC)[C@@H](C)O)C(C)C)[C@@H](C)CC)C(=O)N[C@@H](CC(=O)O)C(=O)N[C@@H](CCCNC(=N)N)C(=O)NC [Peptide P-27404, [N—Me-Tyr^1, D-Ala^2, Fpa5^6, Orn^12, Abu^15, Orn^21, Nle^27, Asp^28]hGHRH(1-29)NH—CH3] (H-[NMeY][dA]DAI[Phe(F5)]TNSYR[Orn]VL[Abu]QLSAR[Orn]LLQDI[Nle]DR-NHMe) |  |  | 2.07 | 1.47 | stimulated greater growth hormone levels than hGHRH or JI-38 |
